Patent publication US20240050512A1, “REDUCTION OF VIRAL INFECTIONS” (priority 2020, published 2024)

Molecular target: T1, cathepsin L protease (Homo sapiens, UniProt P07711)
T1 construct: purchased BPS Bioscience
Assay: Protease inhibition, cell-free fluorogenic kit (BPS Bioscience)
Assay type: biochemical

T1 sequence (P07711 114-333): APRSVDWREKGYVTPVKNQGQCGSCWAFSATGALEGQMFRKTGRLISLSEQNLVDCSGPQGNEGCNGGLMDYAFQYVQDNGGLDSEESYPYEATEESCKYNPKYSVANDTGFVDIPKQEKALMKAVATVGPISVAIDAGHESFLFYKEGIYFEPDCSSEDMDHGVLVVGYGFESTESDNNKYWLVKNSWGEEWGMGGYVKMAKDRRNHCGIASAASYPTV

Structure (SMILES): CC(C)C[C@H](NC(=O)[C@H]1O[C@@H]1C(=O)O)C(=O)NCCCCN=C(N)N [Composition E-64, E-64]
- Percentage inhibition (0.0001 μM): −15.5%
- Percentage inhibition (0.001 μM): −1.1 ^ %
